Values joined by “and” are separate entries in the source; they are usually repeats but may differ in a detail not shown here. Identical values can stand only once. Like-named read-outs stand apart in the source and are kept apart here. Numbered stars: 1 amine (or outer) side, 2 acyl side, 3 side chain; on linkers, the order of the positions; unused ones are H or OH. Square brackets hold non-standard residues; d marks the D form. Ends that are not written are not given here. Peptide text beside a SMILES is read from it. Gly(N-CH2CH2-imidazol-4-yl) = O=C(O)CNCCc1c[nH]cn1; X1 = CC(C)[C@H](C)N(CC(=O)[*:2])[*:1]; Nspe = C[C@H](NCC(=O)O)c1ccccc1; Nphe = O=C(O)CNCc1ccccc1; Nlys = NCCCCNCC(=O)O
Legend:
[1] = RP-HPLC solvent composition at elution as measure of molecular hydrophobicity; format: physicochemical; conditions: for HPLC elution solvent: Table 1, percent acetonitrile in water, 0.1% (v/v) TFA at HPLC elution; for % ACN at RP-HPLC elution: Table 8, gradient 5 to 95% ACN over 45 min, 0.2 ml/min, average of three replicates
Excerpt: An initial set of 15 ampetoid analogs was synthesized to determine whether peptoids are affected by structural and sequence modifications in a manner consistent with AMP activities. The designs for ampetoids in this library were derived from two antibacterial and selective amphipathic dodecamers, 1 and 2. Peptoid 1 [H-(Nlys-Nspe-Nspe)4-NH2] is composed of 2/3 Nspe, the peptoid analog of phenylalanine, and 1/3 Mys, the peptoid analog of lysine (see FIG. 1 for the structures of representative peptoid monomers and corresponding N-substituents). Peptoid 2 [H-(Mys-Nssb-Nspe)4-NH2] contains 1/3 isoleucine-like Nssb monomers in place of Nspe. The variant sequences were designed to effect changes in chirality, length, hydrophobicity, charge, and amphipathicity. All of these compounds were tested for antibacterial activity against representative BSL1 Gram-negative (E. coli JM109) and Gram-positive (B. subtilis BR151) bacterial strains. As an initial measure of selectivity, the lytic activity of the peptoids was determined against human erythrocytes. Table 1 summarizes the sequences synthesized, the solvent composition at RP-HPLC elution as a relative measure of molecular hydrophobicity, and antibacterial and hemolytic activities.
Following synthesis, peptoid oligomers can be cleaved from the resin, simultaneously removing the tert-butoxycarbonyl (Boc) protecting group from Mys residues, by treatment with 10 ml 2,2,2-trifluoroacetic acid (TFA)/triisopropylsilane/H2O (95:2.5:2.5 by volume) for 30 min. The cleavage mixture is then diluted with 25 ml 50% aqueous acetonitrile, frozen, and lyophilized. Dilution and lyophilization is repeated twice more in order to remove excess TFA. Subsequent to cleavage, peptoids are each purified to >97% homogeneity by preparative scale reversed-phase HPLC using a Waters Prep LC 4000 system, with Waters 2487 dual-wavelength UV detection, and gradient elution (solvent A, 0.1 vol % trifluoroacetic acid (TFA) in water; solvent B, 0.1 vol % TFA in acetonitrile) through a Vydac (Hysperia, Calif.) 214TP101550 C4 peptide/protein column (10-15 μm, 300 Å, 5×25 cm). Following prep HPLC, peptoid purities and crude yields were determined from analytical scale HPLC, performed with a Waters 2695 Separations Module with a Waters 2487 dual-wavelength UV detector and gradient elution (solvent A, 0.1 vol % TFA in water; solvent B, 0.1 vol % TFA in acetonitrile) through a Vydac C4 214TP53 peptide/protein column (5 μm, 300 Å, 3.2×250 mm). The precise gradient employed for HPLC depended on the identity and hydrophobicity of the oligomer in question. All analytical HPLC was performed at 0.5 ml/min flow and 58° C. Preparative HPLC was performed at 50 ml/min flow and room temperature.
Compound synthesis and purification. Peptoids were synthesized using an ABI 433A peptide synthesizer (Applied Biosystems, Inc.) on Rink amide MBHA resin (Novabiochem, Inc.) using the submonomer approach^3. Briefly, bromoacetic acid, activated by diisopropylcarbodiimide was used to form a bromocetylated intermediate on the terminal amide group. Bromide was then substituted with the desired primary amine through SN2 displacement to build the peptoid chain. The amines used in peptoid synthesis include benzylamine, octadecylamine, (s)-(+)-2-amino-3-methylbutane, (s)-α-methylbenzylamine, (r)-(α-methylbenzylamine (all purchased from Sigma-Aldrich), and N-tert-butoxycarbonyl-1,4 diaminobutane (Mys) that was made using a published procedure^83. Resin-bound peptoids were then exposed to a mixture of trifluoroacetic acid (TFA): triisopropylsilane:water (95:2.5:2.5, v:v:v) for ten minutes to cleave peptoids from the solid phase. Peptoids were purified by reversed-phase HPLC (RP-HPLC) (Waters Corporation) using a C18 column and a linear acetonitrile/water gradient. A final purity greater than 97% as measured by analytical RP-HPLC (Waters Corporation) was achieved, and the identity of each molecule was checked using electrospray ionization mass spectrometry. […]

E. coli ATCC 35218 = format: cell-based; conditions: for SR: Table 8, calculated as HD10/E. coli MIC; for Selectivity ratio SR E. coli: Table 6, ratio of 10% hemolytic dose to E. coli MIC
B. subtilis ATCC 6633 = format: cell-based; conditions: for Selectivity ratio SR B. subtilis: Table 6, ratio of 10% hemolytic dose to B. subtilis MIC
How it was run: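 Broth microdilution MICs per CLSI M7-A6 in cation-adjusted Mueller-Hinton broth, using 1×10^6 CFU/mL inoculum added 1:1 to twofold serial peptoid dilutions. Values reproducible across three independent experiments, each with two parallel trials.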

C[C@@H](c1ccccc1)N(CC(=O)N(CCc1cnc[nH]1)CC(=O)N(CCCCN)CC(=O)N(CC(=O)N(CC(=O)N(CCCCN)CC(=O)N(CC(=O)N(CCc1cnc[nH]1)CC(N)=O)[C@@H](C)c1ccccc1)[C@@H](C)c1ccccc1)[C@@H](C)c1ccccc1)C(=O)CN(CCCCN)C(=O)CN(C(=O)CN(C(=O)CNCCCCN)[C@@H](C)c1ccccc1)[C@@H](C)c1ccccc1 [1-Nhis6,12, H-(Nlys-Nspe-Nspe-Nlys-Nspe-Nhis)2-NH2] (H-[Nlys][Nspe][Nspe][Nlys][Nspe][Gly(N-CH2CH2-imidazol-4-yl)][Nlys][Nspe][Nspe][Nlys][Nspe][Gly(N-CH2CH2-imidazol-4-yl)]-NH2)
HPLC elution solvent [1]: 37%
% ACN at RP-HPLC elution ([1]; C18 column): 51.4 % ACN
MIC for E. coli ATCC 35218 (E. coli ATCC 35218): 50 µM
SR (E. coli ATCC 35218): >4.0
MIC for B. subtilis ATCC 6633 (B. subtilis ATCC 6633): 0.78 to 1.6 µM

CC(C)[C@H](C)N(CC(=O)N(CC(=O)N(CCCCN)CC(=O)N(CC(=O)N(CC(=O)N(CCCCN)CC(=O)N(CC(=O)N(CC(=O)N(CCCCN)CC(=O)N(CC(=O)N(CC(N)=O)[C@@H](C)c1ccccc1)[C@@H](C)C(C)C)[C@@H](C)c1ccccc1)[C@@H](C)C(C)C)[C@@H](C)c1ccccc1)[C@@H](C)C(C)C)[C@@H](C)c1ccccc1)C(=O)CNCCCCN [1-Nsdp2,5,8,11, H-(Nlys-Nsdp-Nspe)4-NH2] (H-[Nlys][X1][Nspe][Nlys][X1][Nspe][Nlys][X1][Nspe][Nlys][X1][Nspe]-NH2)
Selectivity ratio SR E. coli (E. coli ATCC 35218): > 9.7 and 9.7
Selectivity ratio SR E. coli (E. coli ATCC 35218; listed as 1-Nspd2,5,8,11): 9.7
Selectivity ratio SR B. subtilis (B. subtilis ATCC 6633): 142

NCCCCNCC(=O)N(CC(=O)N(CC(=O)N(CCCCN)CC(=O)N(CC(=O)N(CC(=O)N(CCCCN)CC(=O)N(CC(=O)N(CC(=O)N(CCCCN)CC(=O)N(CC(=O)N(CC(N)=O)Cc1ccccc1)Cc1ccccc1)Cc1ccccc1)Cc1ccccc1)Cc1ccccc1)Cc1ccccc1)Cc1ccccc1)Cc1ccccc1 [1achiral, H-(Nlys-Npm-Npm)4-NH2] (H-[Nlys][Nphe][Nphe][Nlys][Nphe][Nphe][Nlys][Nphe][Nphe][Nlys][Nphe][Nphe]-NH2)
% ACN at RP-HPLC elution ([1]; C18 column): 60.4 % ACN
MIC for E. coli ATCC 35218 (E. coli ATCC 35218): 12.5 µM
Selectivity ratio SR E. coli (E. coli ATCC 35218): 15
SR (E. coli ATCC 35218): 14
MIC for B. subtilis ATCC 6633 (B. subtilis ATCC 6633): 1.6 µM
Selectivity ratio SR B. subtilis (B. subtilis ATCC 6633): 235

GIGKFLKKAKKFGKAFVKILKK-NH2 [pexiganan, reference compound]
HPLC elution solvent [1]: 38%
HPLC ELUTION ([1]; Table 2, percent acetonitrile in H2O, C18 column, 0.1% TFA, pH 1): 38%
HPLC elution (% ACN) ([1]; Table 5, average of three injections, linear 5%-95% acetonitrile/water (0.1% TFA) over 45 minutes, C18 column): 50.2 % ACN
% ACN at RP-HPLC elution ([1]; C18 column): 50.2 % ACN
MIC for E. coli ATCC 35218 (E. coli ATCC 35218): 3.1 to 6.3 µM
Selectivity ratio SR E. coli (E. coli ATCC 35218): 11
SR (E. coli ATCC 35218): 12
Selectivity ratio SR B. subtilis (B. subtilis ATCC 6633): 44

Reference: US20120295838A1, “Selective poly-substituted glycine antibiotics and related compositions” (priority 2008, published 2012)
